pKd: −log10 of the molar value.
Target: T1, CYP90D1 (Arabidopsis thaliana, UniProt Q94IA6)
T1 construct: CYP90D1 mature protein, expressed in E. coli from pCold-GST; fusion cleaved with HRV3C protease
T1 sequence (Q94IA6 1-491): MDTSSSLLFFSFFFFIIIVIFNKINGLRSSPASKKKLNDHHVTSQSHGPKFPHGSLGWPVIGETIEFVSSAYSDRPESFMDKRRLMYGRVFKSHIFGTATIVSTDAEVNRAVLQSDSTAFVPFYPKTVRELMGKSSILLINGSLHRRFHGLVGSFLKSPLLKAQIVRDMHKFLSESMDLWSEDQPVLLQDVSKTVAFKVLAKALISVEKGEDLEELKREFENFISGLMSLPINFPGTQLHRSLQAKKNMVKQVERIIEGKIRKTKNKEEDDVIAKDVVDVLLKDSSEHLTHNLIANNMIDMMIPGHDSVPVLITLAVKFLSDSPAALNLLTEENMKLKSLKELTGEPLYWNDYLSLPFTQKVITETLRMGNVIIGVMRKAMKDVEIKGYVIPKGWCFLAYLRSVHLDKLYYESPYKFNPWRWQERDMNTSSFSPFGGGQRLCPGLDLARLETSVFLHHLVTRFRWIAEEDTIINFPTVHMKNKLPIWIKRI
Test: optical difference spectroscopy (type II binding spectrum) titration of purified recombinant CYP90D1

In the case of CCOc1ccccc1OCC1COC(Cn2cncn2)(c2ccc(Cl)cc2)O1 (stereo not shown) [YCZ-18], the pKd was about 6.10.
